Our source for the IC50 and cytotoxic activity values is patent publication EP2368895A1, “Ferrocenyl flavonoids” (Centre National de la Recherche Scientifique (CNRS), priority 2010, dated 2011).

In the data set the test system is Murine B16 melanoma cells. The following applies: for IC50: murine B16 melanoma cells, MTT, 48 h exposure time, mean ± SD of 3 determinations.

Experimental: Murine B16 melanoma cells were grown in Dulbecco's modified essential medium (DMEM) containing 2 mM L-glutamine, 10% fetal bovine serum, 100 U/ml penicillin and 100 µg/ml streptomycin (37°C, 5% CO2). Stock solutions of the compounds were prepared in DMSO and further diluted in DMEM at the indicated concentrations with a final DMSO concentration of not exceeding 1%. Exponentially growing cells were plated onto 96-well plates at a density of 5000 cells per well in 200 µl DMEM, and 24 h later the compounds were added for another 48 h. Control wells were exposed to 1% DMSO. Viability was assessed using the MTT (1-(4,5-dimethylthiazol-2-yl)-3,5-diphenyltetrazolium) test and absorbance was read at 562 nm in a microplate reader (BioKinetics Reader, EL340) (Carmichael et al. 1987).

Regarding “2-ferrocenyl-4H-chromen-4-one [Compound 2a]”, the half-inhibitory concentration (IC50) was 33.9 ± 0.8 µM.
Consider “6,8-dibromo-2-ferrocenyl-4H-chromen-4-one [Compound 2e]”, for which the IC50 was 13.7 ± 1 µM.
Take “6,8-dichloro-2-ferrocenyl-4H-chromen-4-one [Compound 2d]”: the IC50 turned out to be 12.1 ± 0.4 µM. The IC50 values of the last two substances are within 1.5-fold of each other.
The same measure, in the same setting: for “6,8-difluoro-2-ferrocenyl-4H-chromen-4-one [Compound 2f]” the value was 18 ± 0.2 µM.
In the case of “6-bromo-2-ferrocenyl-4H-chromen-4-one [Compound 2c]”, inhibition was half-maximal at 15.9 ± 0.3 µM (IC50).
On the same count and under the same terms, then “6-chloro-2-ferrocenyl-4H-chromen-4-one [Compound 2b]”, with 15.6 ± 0.3 µM.
Consider “(E)-1-(2-hydroxyphenyl)-3-ferrocenylprop-2-en-1-one [Compound 1a]”, for which the IC50 is 43.7 ± 1.8 µM.
On to “(E)-1-(3,5-dibromo-2-hydroxyphenyl)-3-ferrocenylprop-2-en-1-one [Compound 1e]”, for which the cytotoxic activity result was “decrease in cytotoxic activity” and the midpoint of inhibition, the IC50, lay at 84.2 ± 4.8 µM.
In the case of “(E)-1-(3,5-dichloro-2-hydroxyphenyl)-3-ferrocenylprop-2-en-1-one [Compound 1d]”, the cytotoxic activity entry is given as “decrease in cytotoxic activity” and 73.6 ± 2.6 µM corresponded to half-maximal inhibition (IC50).
In the case of “(E)-1-(3,5-difluoro-2-hydroxyphenyl)-3-ferrocenylprop-2-en-1-one [Compound 1f]”, the cytotoxic activity entry was “decrease in cytotoxic activity” and half-maximal inhibition (IC50) required 49.4 ± 1.3 µM.
Turning to “(E)-1-(5-bromo-2-hydroxyphenyl)-3-ferrocenylprop-2-en-1-one [Compound 1c]”, inhibition was half-maximal at 44.6 ± 2.8 µM (IC50).
Same read-out and setting: then “(E)-1-(5-chloro-2-hydroxyphenyl)-3-ferrocenylprop-2-en-1-one [Compound 1b]”, with 29.5 ± 1.8 µM.

Broadly, the IC50 is the point on the concentration scale where inhibition reaches its midpoint.
